Laboratory results taken from US9738634B2, “Heterocyclic amide compound and herbicide” (SYNGENTA PARTICIPATIONS AG, priority 2013, dated 2017).

Legend:
Format in all cases: in vivo
Settings in all cases: treatment dosage 320 g/ha
oval-leafed pondweed [1] = experiment: Test Example 2: weedkilling efficacy, growth period weed treatment in the submerged state; C: oval-leafed pondweed
Method in brief: (§1)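 Barnyard grass, bulrush and oval-leafed pondweed sown in alluvial soil under 4 cm flooding, greenhouse 25 to 30° C. At 1-2 leaf stage, water-diluted emulsion applied to the water surface at stated g/ha dosages; effects scored 3 weeks later.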

barnyard grass [2] = experiment: Test Example 2: weedkilling efficacy, growth period weed treatment in the submerged state; A: barnyard grass
Method in brief: as §1

black-grass [3] = experiment: Test Example 3: weedkilling efficacy through soil treatment; H: black-grass
Method in brief: (§2)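 Crop and weed responses were judged three weeks after a uniform surface spray of the water-diluted emulsion at the given g/ha rate. Seeds sat beneath about 1.5 cm of sterilized diluvial soil, and boxes stood in a greenhouse at 25 to 30° C.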

transplanted rice = experiment: Test Example 1: preemergent weed treatment in the submerged state, effect on crop; a: transplanted rice
Method in brief: (§3)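 Visual scores against set criteria were taken 3 weeks after treatment. Compounds, as diluted emulsions at specified g/ha, went onto the water surface of 4 cm-flooded alluvial soil pots on the day weeds were sown and 2.5-leaf rice was transplanted; greenhouse held 25–30 °C.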

soybean [4] = experiment: Test Example 4: foliar treatment, effect on crop; d: soybean
Method in brief: (§4)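 Seeds are spot-sown into sterilized diluvial soil and covered with about 1.5 cm of soil. After 14 days' greenhouse growth at 25 to 30° C, plants are sprayed on stems and leaves with diluted emulsion at the stated g/ha rate, then scored at 3 weeks.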

corn [5] = experiment: Test Example 3: soil treatment, effect on crop; c: corn
Method in brief: as §2

Indian mallow [6] = experiment: Test Example 4: weedkilling efficacy by foliar treatment; K: Indian mallow
Method in brief: as §4

redroot pigweed [7] = experiment: Test Example 4: weedkilling efficacy by foliar treatment; L: redroot pigweed
Method in brief: as §4

directly sown rice [8] = experiment: Test Example 4: foliar treatment, effect on crop; b: directly sown rice
Method in brief: as §4

crabgrass [9] = experiment: Test Example 3: weedkilling efficacy through soil treatment; D: crabgrass
Method in brief: as §2

birds-eye speedwell [10] = experiment: Test Example 4: weedkilling efficacy by foliar treatment; p: birds-eye speedwell
Method in brief: as §4

soybean [11] = experiment: Test Example 3: soil treatment, effect on crop; d: soybean
Method in brief: as §2

common wind-grass [12] = experiment: Test Example 4: weedkilling efficacy by foliar treatment; J: common wind-grass
Method in brief: as §4

green foxtail [13] = experiment: Test Example 3: weedkilling efficacy through soil treatment; E: green foxtail
Method in brief: as §2

chickweed [14] = experiment: Test Example 3: weedkilling efficacy through soil treatment; N: chickweed
Method in brief: as §2

black-grass [15] = experiment: Test Example 4: weedkilling efficacy by foliar treatment; H: black-grass
Method in brief: as §4

catchweed [16] = experiment: Test Example 3: weedkilling efficacy through soil treatment; O: catchweed
Method in brief: as §2

wild oat [17] = experiment: Test Example 3: weedkilling efficacy through soil treatment; G: wild oat
Method in brief: as §2

beet [18] = experiment: Test Example 3: soil treatment, effect on crop; f: beet
Method in brief: as §2

fig-leafed goosefoot [19] = experiment: Test Example 4: weedkilling efficacy by foliar treatment; M: fig-leafed goosefoot
Method in brief: as §4

crabgrass [20] = experiment: Test Example 4: weedkilling efficacy by foliar treatment; D: crabgrass
Method in brief: as §4

fig-leafed goosefoot [21] = experiment: Test Example 3: weedkilling efficacy through soil treatment; M: fig-leafed goosefoot
Method in brief: as §2

oval-leafed pondweed [22] = experiment: Test Example 1: weedkilling efficacy, preemergent weed treatment in the submerged state; C: oval-leafed pondweed
Method in brief: as §3

barnyard grass [23] = experiment: Test Example 4: weedkilling efficacy by foliar treatment; F: barnyard grass
Method in brief: as §4

wheat [24] = experiment: Test Example 3: soil treatment, effect on crop; e: wheat
Method in brief: as §2

chickweed [25] = experiment: Test Example 4: weedkilling efficacy by foliar treatment; N: chickweed
Method in brief: as §4

Italian ryegrass [26] = experiment: Test Example 4: weedkilling efficacy by foliar treatment; I: Italian ryegrass
Method in brief: as §4

bulrush [27] = experiment: Test Example 1: weedkilling efficacy, preemergent weed treatment in the submerged state; B: bulrush
Method in brief: as §3

rapeseed [28] = experiment: Test Example 3: soil treatment, effect on crop; g: rapeseed
Method in brief: as §2

birds-eye speedwell [29] = experiment: Test Example 3: weedkilling efficacy through soil treatment; p: birds-eye speedwell
Method in brief: as §2

common wind-grass [30] = experiment: Test Example 3: weedkilling efficacy through soil treatment; J: common wind-grass
Method in brief: as §2

Indian mallow [31] = experiment: Test Example 3: weedkilling efficacy through soil treatment; K: Indian mallow
Method in brief: as §2

bulrush [32] = experiment: Test Example 2: weedkilling efficacy, growth period weed treatment in the submerged state; B: bulrush
Method in brief: as §1

Italian ryegrass [33] = experiment: Test Example 3: weedkilling efficacy through soil treatment; I: Italian ryegrass
Method in brief: as §2

directly sown rice [34] = experiment: Test Example 3: soil treatment, effect on crop; b: directly sown rice
Method in brief: as §2

rapeseed [35] = experiment: Test Example 4: foliar treatment, effect on crop; g: rapeseed
Method in brief: as §4

wheat [36] = experiment: Test Example 4: foliar treatment, effect on crop; e: wheat
Method in brief: as §4

barnyard grass [37] = experiment: Test Example 1: weedkilling efficacy, preemergent weed treatment in the submerged state; A: barnyard grass
Method in brief: as §3

catchweed [38] = experiment: Test Example 4: weedkilling efficacy by foliar treatment; O: catchweed
Method in brief: as §4

barnyard grass [39] = experiment: Test Example 3: weedkilling efficacy through soil treatment; F: barnyard grass
Method in brief: as §2

wild oat [40] = experiment: Test Example 4: weedkilling efficacy by foliar treatment; G: wild oat
Method in brief: as §4

redroot pigweed [41] = experiment: Test Example 3: weedkilling efficacy through soil treatment; L: redroot pigweed
Method in brief: as §2

green foxtail [42] = experiment: Test Example 4: weedkilling efficacy by foliar treatment; E: green foxtail
Method in brief: as §4

corn [43] = experiment: Test Example 4: foliar treatment, effect on crop; c: corn
Method in brief: as §4

beet [44] = experiment: Test Example 4: foliar treatment, effect on crop; f: beet
Method in brief: as §4

COc1cc(C(F)(F)F)cc(NC(=O)C(C)(C)N2COC(C)=C(c3cccnc3F)C2=O)n1 [B-2-14]
C (oval-leafed pondweed) weedkilling efficacy grade (oval-leafed pondweed [1]): 4 (weed kill ratio 70% or more, less than 90%) | A (barnyard grass) weedkilling efficacy grade (barnyard grass [2]): 4 (weed kill ratio 70% or more, less than 90%) | H (black-grass) weedkilling efficacy grade (black-grass [3]): 5 (weed kill ratio 90% or more, (practically complete withering)) | a (transplanted rice) effect on crop grade (transplanted rice): 3 (weed kill ratio 40% or more, less than 70%) | d (soybean) effect on crop grade (soybean [4]): 3 (weed kill ratio 40% or more, less than 70%) | c (corn) effect on crop grade (corn [5]): 0 (weed kill ratio 5% or less (practically no effect)) | K (Indian mallow) weedkilling efficacy grade (Indian mallow [6]): 5 (weed kill ratio 90% or more, (practically complete withering)) | L (redroot pigweed) weedkilling efficacy grade (redroot pigweed [7]): 4 (weed kill ratio 70% or more, less than 90%) | b (directly sown rice) effect on crop grade (directly sown rice [8]): 3 (weed kill ratio 40% or more, less than 70%) | D (crabgrass) weedkilling efficacy grade (crabgrass [9]): 5 (weed kill ratio 90% or more, (practically complete withering)) | P (birds-eye speedwell) weedkilling efficacy grade (birds-eye speedwell [10]): 4 (weed kill ratio 70% or more, less than 90%) | d (soybean) effect on crop grade (soybean [11]): 0 (weed kill ratio 5% or less (practically no effect)) | J (common wind-grass) weedkilling efficacy grade (common wind-grass [12]): 5 (weed kill ratio 90% or more, (practically complete withering)) | E (green foxtail) weedkilling efficacy grade (green foxtail [13]): 5 (weed kill ratio 90% or more, (practically complete withering)) | N (chickweed) weedkilling efficacy grade (chickweed [14]): 3 (weed kill ratio 40% or more, less than 70%) | H (black-grass) weedkilling efficacy grade (black-grass [15]): 5 (weed kill ratio 90% or more, (practically complete withering)) | O (catchweed) weedkilling efficacy grade (catchweed [16]): 4 (weed kill ratio 70% or more, less than 90%) | G (wild oat) weedkilling efficacy grade (wild oat [17]): 5 (weed kill ratio 90% or more, (practically complete withering)) | f (beet) effect on crop grade (beet [18]): 3 (weed kill ratio 40% or more, less than 70%) | M (fig-leafed goosefoot) weedkilling efficacy grade (fig-leafed goosefoot [19]): 4 (weed kill ratio 70% or more, less than 90%) | D (crabgrass) weedkilling efficacy grade (crabgrass [20]): 4 (weed kill ratio 70% or more, less than 90%) | M (fig-leafed goosefoot) weedkilling efficacy grade (fig-leafed goosefoot [21]): 3 (weed kill ratio 40% or more, less than 70%) | C (oval-leafed pondweed) weedkilling efficacy grade (oval-leafed pondweed [22]): 4 (weed kill ratio 70% or more, less than 90%) | F (barnyard grass) weedkilling efficacy grade (barnyard grass [23]): 4 (weed kill ratio 70% or more, less than 90%) | e (wheat) effect on crop grade (wheat [24]): 0 (weed kill ratio 5% or less (practically no effect)) | N (chickweed) weedkilling efficacy grade (chickweed [25]): 4 (weed kill ratio 70% or more, less than 90%) | I (Italian ryegrass) weedkilling efficacy grade (Italian ryegrass [26]): 5 (weed kill ratio 90% or more, (practically complete withering)) | B (bulrush) weedkilling efficacy grade (bulrush [27]): 5 (weed kill ratio 90% or more, (practically complete withering)) | g (rapeseed) effect on crop grade (rapeseed [28]): 1 (weed kill ratio 5% or more, less than 20%) | P (birds-eye speedwell) weedkilling efficacy grade (birds-eye speedwell [29]): 4 (weed kill ratio 70% or more, less than 90%) | J (common wind-grass) weedkilling efficacy grade (common wind-grass [30]): 5 (weed kill ratio 90% or more, (practically complete withering)) | K (Indian mallow) weedkilling efficacy grade (Indian mallow [31]): 0 (weed kill ratio 5% or less (practically no effect)) | B (bulrush) weedkilling efficacy grade (bulrush [32]): 4 (weed kill ratio 70% or more, less than 90%) | I (Italian ryegrass) weedkilling efficacy grade (Italian ryegrass [33]): 5 (weed kill ratio 90% or more, (practically complete withering)) | b (directly sown rice) effect on crop grade (directly sown rice [34]): 4 (weed kill ratio 70% or more, less than 90%) | g (rapeseed) effect on crop grade (rapeseed [35]): 4 (weed kill ratio 70% or more, less than 90%) | e (wheat) effect on crop grade (wheat [36]): 0 (weed kill ratio 5% or less (practically no effect)) | A (barnyard grass) weedkilling efficacy grade (barnyard grass [37]): 5 (weed kill ratio 90% or more, (practically complete withering)) | O (catchweed) weedkilling efficacy grade (catchweed [38]): 4 (weed kill ratio 70% or more, less than 90%) | F (barnyard grass) weedkilling efficacy grade (barnyard grass [39]): 5 (weed kill ratio 90% or more, (practically complete withering)) | G (wild oat) weedkilling efficacy grade (wild oat [40]): 4 (weed kill ratio 70% or more, less than 90%) | L (redroot pigweed) weedkilling efficacy grade (redroot pigweed [41]): 3 (weed kill ratio 40% or more, less than 70%) | E (green foxtail) weedkilling efficacy grade (green foxtail [42]): 5 (weed kill ratio 90% or more, (practically complete withering)) | c (corn) effect on crop grade (corn [43]): 3 (weed kill ratio 40% or more, less than 70%) | f (beet) effect on crop grade (beet [44]): 3 (weed kill ratio 40% or more, less than 70%)
